Results: patent US8697739B2, “Bicyclic acetyl-CoA carboxylase inhibitors and uses thereof” (Novartis AG, priority 2010, dated 2014)

The compounds below were run against T1, human acetyl-CoA carboxylase 2 (ACC2) (Homo sapiens, UniProt O00763) (assay: Acetyl-CoA carboxylase enzyme assay (malonyl-CoA formation by LC/MS/MS)). Conditions: recombinant human ACC2 (aa 144-2458); read-out: IC50 ACC2.
T1 construct: The cDNA encoding amino acids 144 to 2458 of human acetyl-CoA carboxylase 2; made in house; host or cells: Sf9 insect cells (baculovirus, pFastBac1)
T1 sequence (O00763 144-2458): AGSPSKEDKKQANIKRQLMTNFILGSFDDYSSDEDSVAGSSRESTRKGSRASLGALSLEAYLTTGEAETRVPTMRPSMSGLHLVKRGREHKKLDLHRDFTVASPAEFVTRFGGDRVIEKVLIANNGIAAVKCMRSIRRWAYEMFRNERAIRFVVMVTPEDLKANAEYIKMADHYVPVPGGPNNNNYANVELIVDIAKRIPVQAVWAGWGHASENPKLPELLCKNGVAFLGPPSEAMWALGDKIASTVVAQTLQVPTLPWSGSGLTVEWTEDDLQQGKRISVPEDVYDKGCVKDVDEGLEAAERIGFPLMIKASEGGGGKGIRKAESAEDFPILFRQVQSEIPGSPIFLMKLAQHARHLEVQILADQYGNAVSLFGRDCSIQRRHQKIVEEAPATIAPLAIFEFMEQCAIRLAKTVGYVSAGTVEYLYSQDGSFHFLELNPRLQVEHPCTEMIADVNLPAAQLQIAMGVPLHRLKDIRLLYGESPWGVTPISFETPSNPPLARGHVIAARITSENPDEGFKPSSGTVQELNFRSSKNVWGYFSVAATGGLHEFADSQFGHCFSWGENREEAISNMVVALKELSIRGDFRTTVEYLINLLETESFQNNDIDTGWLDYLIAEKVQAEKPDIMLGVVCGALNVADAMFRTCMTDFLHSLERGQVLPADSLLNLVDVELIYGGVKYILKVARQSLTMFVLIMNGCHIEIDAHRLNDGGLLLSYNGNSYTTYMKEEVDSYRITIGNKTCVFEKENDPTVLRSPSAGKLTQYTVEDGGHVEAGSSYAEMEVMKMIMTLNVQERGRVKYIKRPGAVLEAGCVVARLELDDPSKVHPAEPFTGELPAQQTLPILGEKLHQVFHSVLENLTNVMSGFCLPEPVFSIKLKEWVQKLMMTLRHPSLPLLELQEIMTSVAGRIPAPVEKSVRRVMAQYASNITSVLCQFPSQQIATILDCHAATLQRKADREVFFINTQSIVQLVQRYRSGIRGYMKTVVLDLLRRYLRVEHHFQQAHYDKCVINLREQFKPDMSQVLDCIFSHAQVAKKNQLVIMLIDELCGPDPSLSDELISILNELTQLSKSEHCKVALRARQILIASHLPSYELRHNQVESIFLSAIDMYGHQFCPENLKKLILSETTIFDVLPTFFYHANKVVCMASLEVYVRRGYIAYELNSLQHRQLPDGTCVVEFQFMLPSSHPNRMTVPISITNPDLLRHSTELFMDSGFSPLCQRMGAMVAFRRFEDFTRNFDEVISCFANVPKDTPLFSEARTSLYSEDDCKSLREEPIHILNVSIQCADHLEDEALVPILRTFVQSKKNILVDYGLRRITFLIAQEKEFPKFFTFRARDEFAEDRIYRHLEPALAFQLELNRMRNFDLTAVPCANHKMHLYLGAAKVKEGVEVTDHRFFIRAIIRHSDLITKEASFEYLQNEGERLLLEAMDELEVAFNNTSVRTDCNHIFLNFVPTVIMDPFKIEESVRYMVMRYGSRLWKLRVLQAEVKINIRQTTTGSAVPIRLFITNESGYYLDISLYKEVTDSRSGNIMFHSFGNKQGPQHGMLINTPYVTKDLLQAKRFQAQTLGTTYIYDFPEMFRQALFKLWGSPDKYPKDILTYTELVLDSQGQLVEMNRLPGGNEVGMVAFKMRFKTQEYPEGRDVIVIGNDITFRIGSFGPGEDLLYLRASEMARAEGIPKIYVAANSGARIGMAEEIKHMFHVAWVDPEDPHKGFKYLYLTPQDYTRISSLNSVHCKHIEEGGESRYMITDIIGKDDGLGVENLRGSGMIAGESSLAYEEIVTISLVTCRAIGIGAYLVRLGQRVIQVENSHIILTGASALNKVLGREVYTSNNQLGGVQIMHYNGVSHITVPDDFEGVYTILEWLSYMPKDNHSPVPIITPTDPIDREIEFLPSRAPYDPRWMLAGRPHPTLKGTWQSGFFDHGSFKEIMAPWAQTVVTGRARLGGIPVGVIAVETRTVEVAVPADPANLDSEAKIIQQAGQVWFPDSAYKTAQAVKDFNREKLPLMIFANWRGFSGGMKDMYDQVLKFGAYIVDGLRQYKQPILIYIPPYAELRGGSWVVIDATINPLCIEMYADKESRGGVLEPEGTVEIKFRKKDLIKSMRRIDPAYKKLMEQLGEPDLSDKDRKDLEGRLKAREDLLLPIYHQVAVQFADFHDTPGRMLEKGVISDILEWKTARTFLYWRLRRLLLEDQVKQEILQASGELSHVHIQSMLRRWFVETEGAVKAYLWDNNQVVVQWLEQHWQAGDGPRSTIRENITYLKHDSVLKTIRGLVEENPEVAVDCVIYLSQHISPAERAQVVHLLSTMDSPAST
Assay type: biochemical
Description: The cDNA encoding amino acids 144 to 2458 of human acetyl-CoA carboxylase 2 (ACC2, GenBank Accession #NM_001093) was cloned into the SalI and NotI sites of pFastBac1 (Invitrogen; Carlsbad, Calif.). The resulting plasmid was used to generate a recombinant ACC2 baculovirus that was amplified and titered according to the protocols in the Bac-to-Bac baculovirus expression system manual (Invitrogen). The titered virus was used to infect Sf9 cells grown in Ex-Cell 420 serum-free medium (JRH Biosciences; Lenexa, Kans.). At 48 hours post-infection, the cells were harvested and stored at −80° C. until purification. ACC2 was purified using ammonium sulfate precipitation and anion exchange chromatography.
The enzymatic assay was run as follows: 30 μL of reaction buffer (100 mM HEPES pH 7.5, 20 mM MgCl2, 20 mM potassium citrate, 2 mM DTT) was added to a 384-well microtiter plate followed by 2 μL of the test compound (or 100% DMSO control). ACC2 protein (10 μL of a 50 nM working solution) was added to plate, which was incubated at room temperature for 15 minutes. A 30 μL addition of substrate solution (50 μM acetyl-CoA, 120 μM ATP, 2 mM KHCO3) was used to initiate the reactions which were quenched with 6% acetic acid (40 μL). ACC catalyzed malonyl-CoA formation was detected by LC/MS/MS using a Cohesive Technologies LX Series multiplex LC/MSIMS system configured with four binary pumps (Agilent Technologies; Palo Alto, Calif.), a dual arm autosampler (Leap Technologies; Cary, N.C.), and one Quattro Micro triple quadrupole mass spectrometer (Waters, Milford, Mass.), all run by Aria Software version 1.5 (Cohesive Technologies; Franklin, Mass.). Four samples were injected (20 μL) onto four Phenosphere NEXT C18 30×2 mm 5 μm columns (Phenomenex; Torrance, Calif.), eluted by four separate pumps, running identical gradients, through a column switching manifold with the one outlet fitted to the electrospray (ESI) source. Malonyl-CoA was eluted with 5 mM ammonium acetate, pH 4.5 (Buffer A) and 100% acetonitrile (Buffer B) via a step gradient. Argon was used as the collision gas and the following species were monitored via MRM detection: malonyl-CoA (853.8>346.9), internal standard (A: [^13C3]-malonyl-CoA, 857>350). The lower limit of detection is 0.3 uM for malonyl-CoA in this assay.

IC50 [nM] | SMILES
< 10 | Cn1c(-c2ccccc2)cc2cc(S(=O)(=O)N[C@H]3CC[C@H](C(=O)N[C@@H](c4ccccc4)C(C)(C)C(=O)O)CC3)ccc21 [Example 97, (S)-2,2-dimethyl-3-((1r,4S)-4-(1-methyl-2-phenyl-1H-indole-5-sulfonamido)cyclohexanecarboxamido)-3-phenylpropanoic acid]
< 10 | Cc1cc(CO)ccc1-c1cc2ccc(S(=O)(=O)N[C@H]3CC[C@H](C(=O)N4CCOCC4c4ccccc4)CC3)cc2[nH]1 (stereo partly shown) [Example 311, 2-(4-(hydroxymethyl)-2-methylphenyl)-N-((1r,4r)-4-(3-phenylmorpholine-4-carbonyl)cyclohexyl)-1H-indole-6-sulfonamide]
126 | CCN(C)C(=O)[C@H]1CC[C@H](NS(=O)(=O)c2ccc3[nH]c(Nc4ccccc4)nc3c2)CC1 [Example 568, (1r,4r)-N-ethyl-N-methyl-4-(2-(phenylamino)-1H-benzo[d]imidazole-5-sulfonamido)cyclohexanecarboxamide]
115 | Cn1c(-c2ccc(CCC(=O)O)cc2)cc2ccc(S(=O)(=O)N[C@H]3CC[C@H](C(=O)N4CCC[C@@H]4c4ccc(F)cc4)CC3)cc21 [Example 392, 3-(4-(6-(N-((1R,4r)-4-((R)-2-(4-fluorophenyl)pyrrolidine-1-carbonyl)cyclohexyl)sulfamoyl)-1-methyl-1H-indol-2-yl)phenyl)propanoic acid]
88 | CC(C)c1nnc([C@H]2CC[C@H](NS(=O)(=O)c3ccc4[nH]c(Nc5ccc(N6CCN(C)CC6)cc5)nc4c3)CC2)o1 [Example 598, N-((1r,4r)-4-(5-isopropyl-1,3,4-oxadiazol-2-yl)cyclohexyl)-2-(4-(4-methylpiperazin-1-yl)phenylamino)-1H-benzo[d]imidazole-5-sulfonamide]
771 | COC[C@@H](NC(=O)[C@H]1CC[C@H](NS(=O)(=O)c2ccc3c(ccn3C)c2)CC1)c1ccccc1 [Example 674, (1r,4S)-N-((S)-2-methoxy-1-phenylethyl)-4-(1-methyl-1H-indole-5-sulfonamido)cyclohexanecarboxamide]
56 | C[C@@H](NC(=O)[C@H]1CC[C@H](NS(=O)(=O)c2ccc3cc(-c4ccccc4)[nH]c3c2)CC1)c1ccccn1 [Example 19, (1r,4R)-4-(2-phenyl-1H-indole-6-sulfonamido)-N—((R)-1-(pyridin-2-yl)ethyl)cyclohexanecarboxamide]
685 | O=C([C@H]1CC[C@H](NS(=O)(=O)c2ccc3c(c2)CCC(C(F)(F)F)N3)CC1)N1CCNCC1c1ccccc1 (stereo partly shown) [Example 182, N-((1r,4r)-4-(2-phenylpiperazine-1-carbonyl)cyclohexyl)-2-(trifluoromethyl)-1,2,3,4-tetrahydroquinoline-6-sulfonamide]
781 | CC(C)CCNC(=O)[C@H]1CC[C@H](NS(=O)(=O)c2ccc3[nH]c(-c4ccccc4)nc3c2)CC1 [Example 630, (1r,4r)-N-isopentyl-4-(2-phenyl-1H-benzo[d]imidazole-5-sulfonamido)cyclohexanecarboxamide]
20 | COCCc1ccc(-c2cc3ccc(S(=O)(=O)N[C@H]4CC[C@H](C(=O)N5CCOC[C@@H]5C)CC4)cc3n2C)cc1 [Example 444, 2-(4-(2-methoxyethyl)phenyl)-1-methyl-N-((1S,4r)-4-((S)-3-methylmorpholine-4-carbonyl)cyclohexyl)-1H-indole-6-sulfonamide]
95 | C[C@@H](NC(=O)[C@H]1CC[C@H](NS(=O)(=O)c2ccc3nc(OCC(C)(C)O)ccc3c2)CC1)c1ccc(F)cc1 [Example 81, (1r,4R)-N-((R)-1-(4-fluorophenyl)ethyl)-4-(2-(2-hydroxy-2-methylpropoxy)quinoline-6-sulfonamido)cyclohexanecarboxamide]
430 | CC(C)c1nnc(-c2ccc(NS(=O)(=O)c3ccc4[nH]c(-c5ccc(N6CCN(C)CC6)cc5)nc4c3)cc2)o1 [Example 590, N-(4-(5-isopropyl-1,3,4-oxadiazol-2-yl)phenyl)-2-(4-(4-methylpiperazin-1-yl)phenyl)-1H-benzo[d]imidazole-5-sulfonamide]
< 10 | Cn1c(-c2ccccc2)cc2ccc(S(=O)(=O)N[C@H]3CC[C@H](C(=O)N4CC(=O)NC[C@@H]4c4ccccc4)CC3)cc21 [Example 354, 1-methyl-N-((1S,4r)-4-((S)-5-oxo-2-phenylpiperazine-1-carbonyl)cyclohexyl)-2-phenyl-1H-indole-6-sulfonamide]
344 | C[C@@H](NC(=O)[C@H]1CC[C@H](NS(=O)(=O)c2ccc3c(c2)NC(=O)CO3)CC1)c1ccc(F)cc1 [Example 112, (1r,4R)-N-((R)-1-(4-fluorophenyl)ethyl)-4-(3-oxo-3,4-dihydro-2H-benzo[b][1,4]oxazine-6-sulfonamido)cyclohexanecarboxamide]
588 | O=C(NCc1cc(F)cc(F)c1)[C@H]1CC[C@H](NS(=O)(=O)c2ccc3[nH]c(-c4ccccc4)nc3c2)CC1 [Example 644, (1r,4r)-N-(3,5-difluorobenzyl)-4-(2-phenyl-1H-benzo[d]imidazole-5-sulfonamido)cyclohexanecarboxamide]
90 | CC1(C)CN(C(=O)[C@H]2CC[C@H](NS(=O)(=O)c3ccc4c(Cl)c(-c5ccccc5)[nH]c4c3)CC2)CCO1 [Example 469, 3-chloro-N-((1r,4r)-4-(2,2-dimethylmorpholine-4-carbonyl)cyclohexyl)-2-phenyl-1H-indole-6-sulfonamide]
15 | C[C@H]1COCCN1C(=O)[C@H]1CC[C@H](NS(=O)(=O)c2ccc3cc(-c4ccccc4)[nH]c3c2)CC1 [Example 462, N-((1S,4r)-4-((S)-3-methylmorpholine-4-carbonyl)cyclohexyl)-2-phenyl-1H-indole-6-sulfonamide]
< 10 | COC(=O)C(C)(C)[C@@H](NC(=O)[C@H]1CC[C@H](NS(=O)(=O)c2ccc3cc(-c4ccccc4)n(C)c3c2)CC1)c1ccccc1 [Example 407, (S)-methyl 2,2-dimethyl-3-((1r,4S)-4-(1-methyl-2-phenyl-1H-indole-6-sulfonamido)cyclohexanecarboxamido)-3-phenylpropanoate]
62 | Cc1cc(CO)ccc1-c1cc2ccc(S(=O)(=O)N[C@H]3CC[C@H](C(=O)N4CCN(C(=O)OC(C)(C)C)CC4)CC3)cc2[nH]1 [Example 310, tert-butyl 4-((1r,4r)-4-(2-(4-(hydroxymethyl)-2-methylphenyl)-1H-indole-6-sulfonamido)cyclohexanecarbonyl)piperazine-1-carboxylate]
150 | O=C([C@H]1CC[C@H](NS(=O)(=O)c2cnc3c(c2)NCCN3)CC1)N1CCNC[C@@H]1c1ccccc1 [Example 191, N-((1S,4r)-4-((S)-2-phenylpiperazine-1-carbonyl)cyclohexyl)-1,2,3,4-tetrahydropyrido[3,2-b]pyrazine-7-sulfonamide]
> 35000 | C[C@@H](NC(=O)[C@H]1CC[C@H](NS(=O)(=O)c2ccc3c(c2)C(NC(=O)C(F)(F)F)CCN3C(=O)C(F)(F)F)CC1)c1ccc(F)cc1 (stereo partly drawn) [Example 184, (1r,4R)-N-((R)-1-(4-fluorophenyl)ethyl)-4-(4-(2,2,2-trifluoroacetamido)-1-(2,2,2-trifluoroacetyl)-1,2,3,4-tetrahydroquinoline-6-sulfonamido)cyclohexanecarboxamide]
1260 | C[C@@H](NC(=O)[C@H]1CC[C@H](NS(=O)(=O)c2ccc3[nH]c([C@@H]4CNCCN4)nc3c2)CC1)c1ccc(F)cc1 [Example 108, (1r,4R)-N-((R)-1-(4-fluorophenyl)ethyl)-4-(2-((S)-piperazin-2-yl)-1H-benzo[d]imidazole-5-sulfonamido)cyclohexanecarboxamide]
< 10 | CC(=O)c1ccc(Nc2nc3cc(S(=O)(=O)N[C@H]4CC[C@H](C(=O)N[C@H](C)c5ccccc5)CC4)ccc3[nH]2)cc1 [Example 572, (1r,4R)-4-(2-(4-acetylphenylamino)-1H-benzo[d]imidazole-5-sulfonamido)-N-((R)-1-phenylethyl)cyclohexanecarboxamide]
247 | CC(C)OC(=O)c1ccc(NS(=O)(=O)c2ccc3nc(-c4ccc(C(C)O)cc4)[nH]c3c2)cc1 (stereo not shown) [Example 517, isopropyl 4-(2-(4-(1-hydroxyethyl)phenyl)-1H-benzo[d]imidazole-6-sulfonamido)benzoate]
166 | CC(C)OC(=O)c1ccc(NS(=O)(=O)c2ccc3[nH]c(Nc4cccc(C#N)c4)nc3c2)cc1 [Example 525, isopropyl 4-(2-(3-cyanophenylamino)-1H-benzo[d]imidazole-5-sulfonamido)benzoate]
